# In patent US20040067915A1, “Method to treat cardiofibrosis with a combination of an angiotensin II antagonist and spironolactone” (G.D. Searle & Co., priority 1995, published 2004):
# Biological target: T1, angiotensin II receptor (rabbit aortic rings) (Oryctolagus cuniculus, UniProt P34976)
# T1 construct: The thoracic aorta was removed, cleaned of adherent fat and connective tissue and then cut into 3-mm ring segments; from tissue; host or cells: rabbit thoracic aorta rings, endothelium removed
# T1 sequence (P34976 1-359): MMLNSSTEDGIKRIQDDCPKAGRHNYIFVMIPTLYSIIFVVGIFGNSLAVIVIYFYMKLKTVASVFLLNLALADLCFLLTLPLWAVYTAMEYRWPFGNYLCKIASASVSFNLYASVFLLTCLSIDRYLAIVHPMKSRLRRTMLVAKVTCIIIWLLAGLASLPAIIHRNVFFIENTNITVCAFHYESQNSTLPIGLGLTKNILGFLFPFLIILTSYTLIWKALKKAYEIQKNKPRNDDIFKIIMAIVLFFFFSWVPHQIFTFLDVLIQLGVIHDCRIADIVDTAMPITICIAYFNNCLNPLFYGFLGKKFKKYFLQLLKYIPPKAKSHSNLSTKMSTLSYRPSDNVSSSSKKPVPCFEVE
# Test: Assay B: In vitro Vascular Smooth Muscle Response for AII (rabbit aortic rings, pA2)
# Type: cell-based
# Design: key to Assay B pA2 (NC = Non-Competitive antagonist): NC=Non-Competitive antagonist
# Settings: not given
# Protocol: Assay B: In vitro Vascular Smooth Muscle-response for AII
# The compounds of the invention were tested for antagonist activity in rabbit aortic rings. Male New Zealand white rabbits (2-2.5 kg) were sacrificed using an overdose of pentobarbital and exsanguinated via the carotid arteries. The thoracic aorta was removed, cleaned of adherent fat and connective tissue and then cut into 3-mm ring segments. The endothelium was removed from the rings by gently sliding a rolled-up piece of filter paper into the vessel lumen. The rings were then mounted in a water-jacketed tissue bath, maintained at 37° C., between moveable and fixed ends of a stainless steel wire with the moveable end attached to an FT03 Grass transducer coupled to a Model 7D Grass Polygraph for recording isometric force responses. […] The preparations were equilibrated for one hour before approximately one gram of passive tension was placed on the rings. Angiotensin II concentration-response curves were then recorded (3×10^−10 to 1×10^−5 M). Each concentration of AII was allowed to elicit its maximal contraction, and then AII was washed out repeatedly for 30 minutes before rechallenging with a higher concentration of AII. Aorta rings were exposed to the test antagonist at 10^−5 M for 5 minutes before challenging with AII. Adjacent segments of the same aorta ring were used for all concentration-response curves in the presence or absence of the test antagonist. The effectiveness of the test compound was expressed in terms of pA2 values and were calculated according to H. O. Schild [Br. J. Pharmacol. Chemother., 2, 189-206 (1947)]. The pA2 value is […] which increases the EC50 value for AII by a factor of two. Each test antagonist was evaluated in aorta rings from two rabbits.
# 2Assay B: In vitro Vascular Smooth Muscle Response
row,Structure (SMILES),Assay B pA2 (NC = Non-Competitive antagonist)
1,CCCCc1cn([C@H]2[C@H](C)CCC[C@@H]2C)c(=O)n1Cc1ccc(-c2ccccc2-c2nnn[nH]2)nc1 [Compound 236],NC
2,CCCCc1cn(-c2ccccc2CC)c(=O)n1Cc1ccc(-c2ccccc2-c2nnn[nH]2)cc1 [Compound 271],NC
3,CCCCc1cn(-c2ccccc2C(C)C)c(=O)n1Cc1ccc(-c2ccccc2-c2nnn[nH]2)cc1 [Compound 272],NC

# Same assay, conditions: two determinations given as a/b
row,Structure (SMILES),Kb
1,CCCCc1ncn(Cc2ccc(-c3ccccc3-c3nnn[nH]3)cc2)n1 [Compound 54],955 nM
2,CCCCc1nc(CCCC2CCCCC2)n(Cc2ccc(-c3ccccc3-c3nnn[nH]3)cc2)n1 [Compound 57],1000 nM
3,CCCCc1nc(C)n(Cc2ccc(-c3ccccc3C(=O)O)cc2)n1 [Compound 77],1700 nM
4,CCCCc1nn(CCCC)c(=O)n1Cc1ccc(-c2ccccc2C(=O)O)cc1 [Compound 78],100 nM
5,CCCCc1nn(CC(=O)C23CC4CC(CC(C4)C2)C3)c(=O)n1Cc1ccc(-c2ccccc2-c2nn[nH]n2)cc1 [Compound 80],7.94 nM
6,CCCCc1nn(CCCc2ccccc2)c(=O)n1Cc1ccc(-c2ccccc2-c2nn[nH]n2)cc1 [Compound 81],10 nM
7,CCCCc1nn(CC(O)c2ccccc2)c(=O)n1Cc1ccc(-c2ccccc2-c2nn[nH]n2)cc1 (centres unmarked) [Compound 83],5.01 nM
8,CCCCc1nn(CC(=O)OC(C)(C)C)c(=O)n1Cc1ccc(-c2ccccc2-c2nn[nH]n2)cc1 [Compound 84],79.4 nM
9,CCCCCCn1nc(CCCC)n(Cc2ccc(-c3ccccc3-c3nn[nH]n3)cc2)c1=O [Compound 85],1.26 nM
10,CCCCc1nn(CC(=O)OCC)c(=O)n1Cc1ccc(-c2ccccc2-c2nn[nH]n2)cc1 [Compound 86],15.8 nM
11,CCCCc1nn(CC(=O)O)c(=O)n1Cc1ccc(-c2ccccc2-c2nn[nH]n2)cc1 [Compound 87],15.8 nM
12,CCCCc1nn(CCC2CCCCC2)c(=O)n1Cc1ccc(-c2ccccc2-c2nn[nH]n2)cc1 [Compound 89],12.6 nM
13,CCCCCn1nc(CCCC)n(Cc2ccc(-c3ccccc3-c3nn[nH]n3)cc2)c1=O [Compound 90],1 nM
14,CCCCc1nn(CC(OCC(=O)O)c2ccccc2)c(=O)n1Cc1ccc(-c2ccccc2-c2nn[nH]n2)cc1 (centres unmarked) [Compound 91],2.51 nM
15,CCCCc1nn(CCC(C)CC(C)(C)C)c(=O)n1Cc1ccc(-c2ccccc2-c2nn[nH]n2)cc1 (centres unmarked) [Compound 92],12.6 nM
16,CCCCc1nn(C(=O)CCC)c(=O)n1Cc1ccc(-c2ccccc2-c2nn[nH]n2)cc1 [Compound 95],6.31 nM
17,CCCCc1nn(CC(=O)c2cc(OC)ccc2OC)c(=O)n1Cc1ccc(-c2ccccc2-c2nn[nH]n2)cc1 [Compound 96],10 nM
18,CCCCc1nn(CC(OCc2ccccc2)c2ccccc2)c(=O)n1Cc1ccc(-c2ccccc2-c2nn[nH]n2)cc1 (centres unmarked) [Compound 97],20 nM
19,CCCCc1nn(CC(O)c2cc(OC)ccc2OC)c(=O)n1Cc1ccc(-c2ccccc2-c2nn[nH]n2)cc1 (centres unmarked) [Compound 98],7.94 nM
20,CCCCc1nn(Cc2ccc3ccccc3c2)c(=O)n1Cc1ccc(-c2ccccc2-c2nn[nH]n2)cc1 [Compound 99],316 nM
21,CCCCc1nn(C(CC(=O)OCC)C(=O)c2ccccc2)c(=O)n1Cc1ccc(-c2ccccc2-c2nn[nH]n2)cc1 (centres unmarked) [Compound 101],15.8 nM
22,CCCCc1nn(C(C)(C)C(=O)c2ccccc2)c(=O)n1Cc1ccc(-c2ccccc2-c2nn[nH]n2)cc1 [Compound 102],20 nM
23,CCCCc1nn(CCCCC(=O)O)c(=O)n1Cc1ccc(-c2ccccc2-c2nn[nH]n2)cc1 [Compound 103],10 nM
24,CCCCn1nc(C(C#N)CCC)n(Cc2ccc(-c3ccccc3-c3nn[nH]n3)cc2)c1=O (centres unmarked) [Compound 106],20 nM

# Continued, values first:
row,Kb,Structure (SMILES)
1,5.01 nM,CCCCc1nn(CC(OCC(=O)OCC)c2ccccc2)c(=O)n1Cc1ccc(-c2ccccc2-c2nn[nH]n2)cc1 (centres unmarked) [Compound 107]
2,5010 nM,CCCCc1nc2cnncc2n1Cc1ccc(-c2ccccc2C(=O)O)cc1 [Compound 108]
3,50.1 nM,CCCCc1nc2c(O)nnc(O)c2n1Cc1ccc(-c2ccccc2C(=O)O)cc1 [Compound 109]
4,398 nM,CCCCc1nc2c(Cl)nnc(Cl)c2n1Cc1ccc(-c2ccccc2-c2nnn[nH]2)cc1 [Compound 110]
5,6310 nM,CCCCc1nc2c(OCC)nnc(OCC)c2n1Cc1ccc(-c2ccccc2-c2nnn[nH]2)cc1 [Compound 112]
6,3.98 nM,CCCCc1nc2c(CCC)nnc(O)c2n1Cc1ccc(-c2ccccc2-c2nnn[nH]2)cc1 [Compound 113]
7,398 nM,CCCCc1nc2c(O)nnc(CCC)c2n1Cc1ccc(-c2ccccc2-c2nn[nH]n2)cc1 [Compound 114]
8,316 nM,CCCCc1nc2c(O)nncc2n1Cc1ccc(-c2ccccc2-c2nnn[nH]2)cc1 [Compound 116]
9,11000 nM,CCCCc1nc(Cc2ccc(-c3ccccc3C(=O)O)cc2)nn1CCCC [Compound 127]
10,5010 nM,CCCCc1nc(Cc2ccc(-c3ccccc3-c3nnn[nH]3)cc2)nn1CCCC [Compound 129]
11,2 nM,CCCCc1cn(CCc2ccccc2)c(=O)n1Cc1ccc(-c2ccccc2-c2nnn[nH]2)cc1 [Compound 133]
12,0.501 nM,CCCCc1cn(CCc2cccs2)c(=O)n1Cc1ccc(-c2ccccc2-c2nnn[nH]2)cc1 [Compound 134]
13,3.16 nM,CCCCc1cn(-c2ccccc2Cl)c(=O)n1Cc1ccc(-c2ccccc2-c2nnn[nH]2)cc1 [Compound 135]
14,5.01 nM,CCCCc1c(C)n(CCCC)c(=O)n1Cc1ccc(-c2ccccc2-c2nnn[nH]2)cc1 [Compound 137]
15,6.31 nM,CCCc1cn(CCC)c(=O)n1Cc1ccc(-c2ccccc2-c2nnn[nH]2)cc1 [Compound 138]
16,2510 nM,CCCCc1nc(Cl)c(Cl)n1Cc1ccc(-n2cccc2C(=O)O)cc1 [Compound 147]
17,1580 nM,CCCCc1nc(Cl)c(CO)n1Cc1ccc(-n2cccc2C(=O)O)cc1 [Compound 148]
18,0.851 nM,CCCCc1cn(-c2c(C)cccc2C)c(=O)n1Cc1ccc(-c2ccccc2-c2nnn[nH]2)cc1 [Compound 275]
19,288 nM,CCCCc1cn(-c2c(C(C)C)cccc2C(C)C)c(=O)n1Cc1ccc(-c2ccccc2-c2nnn[nH]2)cc1 [Compound 277]

# Tested on: pressor response to AII
# Test: Assay C: In vivo Intragastric Pressor Assay Response for AII Antagonists
# Settings: dose 3 mg/kg, rat
# Protocol: Assay C: In vivo Intragastric Pressor Assay Response for All Antagonists
# Male Sprague-Dawley rats weighing 225-300 grams were anesthetized with methohexital (30 mg/kg, i.p.) and catheters were implanted into the femoral artery and vein. The catheters were tunneled subcutaneously to exit dorsally, posterior to the head and between the scapulae. The catheters were filled with heparin (1000 units/ml of saline). The rats were returned to their cage and allowed regular rat chow and water ad libitum. After full recovery from surgery (3-4 days), rats were placed in Lucite holders and the arterial line was connected to a pressure transducer. Arterial pressure was recorded on a Gould polygraph (mmHg). Angiotensin II was administered as a 30 ng/kg bolus via the venous catheter delivered in a 50 μl volume with a 0.2 ml saline flush. The pressor response in mm Hg was measured by the difference from pre-injection arterial pressure to the maximum pressure achieved. The AII injection was repeated every 10 minutes until three consecutive injections yielded responses within 4 mmHg of each other. These three responses were then averaged and represented the control response to AII. The test compound was suspended in 0.5% methylcellulose in water and was administered by gavage. The volume administered was 2 ml/kg body weight. The standard dose was 3 mg/kg. Angiotensin II bolus injections were given at 30, 45, 60, 75, 120, 150, and 180 minutes after gavage. The pressor response to AII was measured at each time point. The rats were then returned to their cage for future testing. A minimum of 3 days was allowed between tests. Percent inhibition was calculated for each time point following gavage by the following formula: [(Control Response—Response at time point)/Control Response]×100.
# 3Assay C: In vivo Pressor Response
row,Structure (SMILES),Assay C Duration
1,CCCCc1nc2cnncc2n1Cc1ccc(-c2ccccc2-c2nnn[nH]2)cc1 [Compound 115],>240 min
2,CCCCc1nc2c(OC(C)=O)nnc(OC(C)=O)c2n1Cc1ccc(-c2ccccc2-c2nnn[nH]2)cc1 [Compound 125],>240 min

# Same assay, conditions: po, dose 3 mg/kg, rat, AII pressor response
row,Structure (SMILES),inhibition at 3 mg/kg
1,CCCCc1nc2cnncc2n1Cc1ccc(-c2ccccc2-c2nnn[nH]2)cc1 [Compound 115],40%
2,CCCCc1nc2c(OC(C)=O)nnc(OC(C)=O)c2n1Cc1ccc(-c2ccccc2-c2nnn[nH]2)cc1 [Compound 125],35%
